Data reported in patent US20230149362A1, “NEW CAPSULE COMPOSITION FOR PERORAL ADMINISTRATION” (Vicore Pharma AB, priority 2020, published 2023).
Counter-ions that a name gives are not always drawn.

Experiment: Compatibility study of C21 sodium salt with lipid-based ingredients and capsule shell components
Format: physicochemical
Description: Experiments were then performed to assess the chemical compatibility of C21 with selected pharmaceutically-acceptable lipid-based ingredients (some, but not all, of which were also studied in Example 3 above), as well as the main soft shell gelatin capsule components, under accelerated conditions.
The compatibility study was performed by storing at 40° C. and 75% RH for eight weeks in a climatic chamber (Weiss Technik), during which an analysis of impurities formed was performed after four (T4) and eight (T8) weeks.
An additional experiment was performed by storing for eight weeks at room temperature in the laboratory (with controlled temperature and humidity).
Testing of C21 sodium salt in the absence of excipients was performed as a reference.
In Table 6, the generic names and the sources of the various excipients are the same as presented above, e.g. in Table 5.
Samples A0 to A16 and B1 were prepared in 20 mL glass vials, with two preparations being prepared for each time point. Samples C1 to C16 and D1 were prepared in 20 mL glass vials, with one preparation for each time point.
Assay and impurity evaluations were made using the same Waters UPLC Acquity system and essentially the same chromatographic conditions as described in Example 3 above.
The impurity analysis is summarized in Table 7 below, in which C21 assay values (I) and impurity values (II) are presented as % recovery and represent the average value obtained for each mixture on the two sample preparations.

[1] = T4 (four weeks), 40° C. and 75% RH
[2] = T8 (eight weeks), 40° C. and 75% RH
[3] = T8 (eight weeks), Ambient temp.

C21 assay values (I) (T0): 98.2 % recovery
impurity values (II) (T0): 0.24 % recovery
C21 assay values (I) [1]: 102.2 % recovery
impurity values (II) [1]: 0.23 % recovery
C21 assay values (I) [2]: 101.3 % recovery
impurity values (II) [2]: 0.25 % recovery
C21 assay values (I) [3]: 102.0 % recovery
impurity values (II) [3]: 0.24 % recovery
SMILES: CCCCOC(=O)NS(=O)(=O)c1sc(CC(C)C)cc1-c1ccc(Cn2ccnc2)cc1 [C21 sodium salt, N-butyloxycarbonyl-3-(4-imidazol-1-ylmethylphenyl)-5-iso-butylthiophene-2-sulfonamide]
